“And” between values parts separate entries of the source, which are not always exact repeats. Identical values can stand only once. Toxic doses and inconclusive results are not listed. No stated cut-off is given here; in the data, active means T/C of 150% or more; inactive means T/C below 125%.
System: L1210 leukemia ip in BDF1 mice, survival T/C
Assay: NCI In Vivo Anticancer Drug Screen. Data for tumor model L1210 Leukemia (intraperitoneal) in B6D2F1 (BDF1) mice
Details: endpoint: mean survival time, higher = longer survival
Summary of the method: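 Ratio derived from survival: compound-dosed mice over vehicle-dosed mice, all bearing a transplantable tumor.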

[1] = dose: 100.0 mg/kg/injection, schedule: Q01DX009 (ip), vehicle: saline with Tween-80
[2] = dose: 100.0 mg/kg/injection, schedule: Q04DX002 (ip), vehicle: saline with Tween-80
[3] = dose: 100.0 mg/kg/injection, schedule: Q04DX003 (ip), vehicle: saline with Tween-80
[4] = dose: 200.0 mg/kg/injection, schedule: Q01DX009 (ip), vehicle: saline with Tween-80
[5] = dose: 200.0 mg/kg/injection, schedule: Q04DX002 (ip), vehicle: saline with Tween-80
[6] = dose: 200.0 mg/kg/injection, schedule: Q04DX003 (ip), vehicle: saline with Tween-80
[7] = dose: 400.0 mg/kg/injection, schedule: Q01DX009 (ip), vehicle: saline with Tween-80
[8] = dose: 400.0 mg/kg/injection, schedule: Q04DX002 (ip), vehicle: saline with Tween-80
[9] = dose: 400.0 mg/kg/injection, schedule: Q04DX003 (ip), vehicle: saline with Tween-80
[10] = dose: 100.0 mg/kg/injection, schedule: Q01DX009 (ip), vehicle: Klucel (hydroxypropylcellulose) (HPC)
[11] = dose: 100.0 mg/kg/injection, schedule: Q04DX003 (ip), vehicle: Klucel (hydroxypropylcellulose) (HPC)
[12] = dose: 200.0 mg/kg/injection, schedule: Q01DX009 (ip), vehicle: Klucel (hydroxypropylcellulose) (HPC)
[13] = dose: 200.0 mg/kg/injection, schedule: Q04DX003 (ip), vehicle: Klucel (hydroxypropylcellulose) (HPC)
[14] = dose: 400.0 mg/kg/injection, schedule: Q01DX009 (ip), vehicle: Klucel (hydroxypropylcellulose) (HPC)
[15] = dose: 400.0 mg/kg/injection, schedule: Q04DX003 (ip), vehicle: Klucel (hydroxypropylcellulose) (HPC)
[16] = dose: 100.0 mg/kg/injection, schedule: Q01DX001 (ip), vehicle: saline
[17] = dose: 200.0 mg/kg/injection, schedule: Q01DX001 (ip), vehicle: saline
[18] = dose: 400.0 mg/kg/injection, schedule: Q01DX001 (ip), vehicle: saline
[19] = dose: 100.0 mg/kg/injection, schedule: Q04DX002 (ip), vehicle: Klucel (hydroxypropylcellulose) (HPC)
[20] = dose: 200.0 mg/kg/injection, schedule: Q04DX002 (ip), vehicle: Klucel (hydroxypropylcellulose) (HPC)
[21] = dose: 400.0 mg/kg/injection, schedule: Q04DX002 (ip), vehicle: Klucel (hydroxypropylcellulose) (HPC)

Measured: T/C

O=C(Nc1ccccc1[N+](=O)[O-])Oc1ccc(-c2ccccc2)cc1
inactive: [1] 93 % of control and 105 % of control | [2] 103 % of control and 117 % of control | [3] 98 % of control | [4] 101 % of control and 92 % of control | [5] 107 % of control and 91 % of control | [6] 95 % of control | [7] 101 % of control and 103 % of control | [8] 101 % of control and 91 % of control | [9] 101 % of control

CC(C=O)CC1CCCCC1 (configuration not stated)
inactive: [1] 97 % of control | [3] 95 % of control | [4] 95 % of control | [6] 97 % of control | [7] 95 % of control | [9] 95 % of control

Clc1ccc(N=Cc2ccccc2)cc1
inactive: [10] 104 % of control | [11] 95 % of control | [12] 103 % of control | [13] 96 % of control | [14] 98 % of control | [15] 104 % of control

CCOc1ccccc1/C=N/Nc1c2ccccc2nc2ccccc12
inactive: [16] 90 % of control | [17] 97 % of control | [18] 92 % of control

O=C1CCSC(=S)N1c1ccc(Cl)c(Cl)c1
inactive: dose: 25.0 mg/kg/injection, schedule: Q04DX003 (ip), vehicle: saline with Tween-80 101 % of control | dose: 50.0 mg/kg/injection, schedule: Q04DX003 (ip), vehicle: saline with Tween-80 101 % of control | [3] 104 % of control

O=C(O)CCCOc1cc(Cl)c(Cl)cc1Cl
inactive: dose: 50.0 mg/kg/injection, schedule: Q01DX001 (ip), vehicle: carboxymethylcellulose (CMC) 88 % of control | dose: 50.0 mg/kg/injection, schedule: Q01DX009 (ip), vehicle: gum acacia 98 % of control | dose: 50.0 mg/kg/injection, schedule: Q04DX003 (ip), vehicle: gum acacia 96 % of control | dose: 100.0 mg/kg/injection, schedule: Q01DX001 (ip), vehicle: carboxymethylcellulose (CMC) 88 % of control | dose: 100.0 mg/kg/injection, schedule: Q01DX009 (ip), vehicle: gum acacia 100 % of control | dose: 100.0 mg/kg/injection, schedule: Q04DX003 (ip), vehicle: gum acacia 96 % of control | dose: 200.0 mg/kg/injection, schedule: Q01DX009 (ip), vehicle: gum acacia 93 % of control | dose: 200.0 mg/kg/injection, schedule: Q04DX003 (ip), vehicle: gum acacia 104 % of control

NCC(=O)O.[Zn+2]
inactive: dose: 100.0 mg/kg/injection, schedule: Q01DX001 (ip), vehicle: water 97 % of control | dose: 200.0 mg/kg/injection, schedule: Q01DX001 (ip), vehicle: water 96 % of control | dose: 400.0 mg/kg/injection, schedule: Q01DX001 (ip), vehicle: water 94 % of control

CCCC(O)C(CC)CO (configuration not stated)
inactive: dose: 100.0 mg/kg/injection, schedule: Q01DX009 (ip), vehicle: saline 102 % of control | dose: 200.0 mg/kg/injection, schedule: Q01DX009 (ip), vehicle: saline 100 % of control | dose: 400.0 mg/kg/injection, schedule: Q01DX009 (ip), vehicle: saline 104 % of control

CS/C([S-])=N/[NH-].CS/C([S-])=N/[NH-].[Pd]
inactive: dose: 3.13 mg/kg/injection, schedule: Q01DX009 (ip), vehicle: saline with Tween-80 98 % of control | dose: 6.25 mg/kg/injection, schedule: Q01DX009 (ip), vehicle: saline with Tween-80 100 % of control | dose: 12.5 mg/kg/injection, schedule: Q01DX009 (ip), vehicle: saline with Tween-80 89 % of control

CN(C)Cc1ncccc1OC(=O)N(c1ccccc1)c1ccccc1
inactive: dose: 12.5 mg/kg/injection, schedule: Q01DX009 (ip), vehicle: saline 97 % of control | dose: 25.0 mg/kg/injection, schedule: Q01DX009 (ip), vehicle: saline 97 % of control | dose: 50.0 mg/kg/injection, schedule: Q01DX009 (ip), vehicle: saline 100 % of control

Nc1ccccc1CCc1ccccc1
inactive: [19] 103 % of control | [20] 100 % of control | [21] 100 % of control

Cc1nccnc1S(=O)c1ccc(Br)cc1 (configuration not stated)
inactive: dose: 100.0 mg/kg/injection, schedule: Q01DX001 (ip), vehicle: Klucel (hydroxypropylcellulose) (HPC) 98 % of control | dose: 200.0 mg/kg/injection, schedule: Q01DX001 (ip), vehicle: Klucel (hydroxypropylcellulose) (HPC) 95 % of control | dose: 400.0 mg/kg/injection, schedule: Q01DX001 (ip), vehicle: Klucel (hydroxypropylcellulose) (HPC) 92 % of control

C(=C/c1ccccc1)/C[P+](c1ccccc1)(c1ccccc1)c1ccccc1
inactive: dose: 1.25 mg/kg/injection, schedule: Q01DX009 (ip), vehicle: saline with Tween-80 97 % of control | dose: 2.5 mg/kg/injection, schedule: Q01DX009 (ip), vehicle: saline with Tween-80 94 % of control | dose: 5.0 mg/kg/injection, schedule: Q01DX009 (ip), vehicle: saline with Tween-80 98 % of control | dose: 5.0 mg/kg/injection, schedule: Q04DX003 (ip), vehicle: saline with Tween-80 98 % of control | dose: 10.0 mg/kg/injection, schedule: Q04DX003 (ip), vehicle: saline with Tween-80 86 % of control | dose: 20.0 mg/kg/injection, schedule: Q04DX003 (ip), vehicle: saline with Tween-80 90 % of control

O=C(N/N=C\c1c(Cl)cccc1Cl)N/N=C/c1c(Cl)cccc1Cl
inactive: [2] 89 % of control | [5] 99 % of control | [8] 95 % of control

C=C1C(O)CC2CC1C2(C)C (configuration not stated)
inactive: [3] 92 % of control | [6] 92 % of control

CCOc1ccc(/C=N/N=C(N)N)cc1OCC
inactive: dose: 62.5 mg/kg/injection, schedule: Q01DX Z (oral), vehicle: saline 110 % of control | dose: 125.0 mg/kg/injection, schedule: Q01DX Z (oral), vehicle: saline 114 % of control | dose: 250.0 mg/kg/injection, schedule: Q01DX Z (oral), vehicle: saline 91 % of control

O=[N+]([O-])c1cccc(N=P(c2ccccc2)(c2ccccc2)c2ccccc2)c1
inactive: [10] 95 % of control | [11] 117 % of control | [12] 95 % of control | [13] 95 % of control | [14] 88 % of control | [15] 88 % of control

O=Cc1[nH]c(=S)[nH]c(=O)c1Cc1ccc(Cl)cc1
inactive: [16] 96 % of control | [17] 93 % of control | [18] 96 % of control

CC(=O)N(C)c1ccc(NC(=O)Nc2cc([N+](=O)[O-])ccc2C)cc1
inactive: [19] 106 % of control | [20] 108 % of control | [21] 101 % of control

C=CC[P+](c1ccccc1)(c1ccccc1)c1ccccc1
inactive: dose: 1.56 mg/kg/injection, schedule: Q01DX009 (ip), vehicle: Klucel (hydroxypropylcellulose) (HPC) 103 % of control | dose: 3.12 mg/kg/injection, schedule: Q01DX009 (ip), vehicle: Klucel (hydroxypropylcellulose) (HPC) 101 % of control | dose: 5.0 mg/kg/injection, schedule: Q01DX001 (ip), vehicle: saline 104 % of control | dose: 6.25 mg/kg/injection, schedule: Q01DX009 (ip), vehicle: Klucel (hydroxypropylcellulose) (HPC) 94 % of control | dose: 9.5 mg/kg/injection, schedule: Q01DX001 (ip), vehicle: other 107 % of control | dose: 10.0 mg/kg/injection, schedule: Q01DX001 (ip), vehicle: saline 98 % of control | dose: 12.5 mg/kg/injection, schedule: Q01DX009 (ip), vehicle: Klucel (hydroxypropylcellulose) (HPC) 103 % of control | dose: 19.0 mg/kg/injection, schedule: Q01DX001 (ip), vehicle: other 100 % of control | dose: 20.0 mg/kg/injection, schedule: Q01DX001 (ip), vehicle: saline 102 % of control | dose: 38.0 mg/kg/injection, schedule: Q01DX001 (ip), vehicle: other 102 % of control

CCOc1ccc([N+](=O)[O-])cc1C1N(Cc2ccc(OC)cc2)CCCN1Cc1ccc(OC)cc1
inactive: dose: 100.0 mg/kg/injection, schedule: Q01DX001 (ip), vehicle: acetone 100 % of control | dose: 200.0 mg/kg/injection, schedule: Q01DX001 (ip), vehicle: acetone 94 % of control | dose: 400.0 mg/kg/injection, schedule: Q01DX001 (ip), vehicle: acetone 94 % of control
